Target: T1, KDM5B enzyme (Homo sapiens, UniProt Q9UGL1)
T1 construct: Reaction Biology Corp (named for the assay, not expressly for the enzyme)
Assay: KDM5B HTRF (TR-FRET) demethylase inhibition assay
Type: biochemical
Conditions: 1.2 nM KDM5B, 30 nM Biotin-H3K4Me3 1-21 substrate, 10 point dose-response
Method: Ten point dose-response curves for the compounds of Examples 1-135 were determined using a homogeneous time resolved fluorescence (HTRF) assay (Reaction Biology Corp, Malvern, Pa.). This assay combines fluorescence resonance energy transfer (FRET) with time resolve (TR) measurements (TR-FRET). The KDM5B α-ketoglutarate-dependent demethylase activity is calculated by measuring demethylation of a biotin labeled histone tri-methylated H3K4 substrate using an europium-cryptate (Eu)-labeled antibody donor specific for dimethylated histone H3K4 and a Streptavidin-XL665 acceptor that binds to the biotin group of substrate, and detecting FRET by exciting the reaction mixture at 320 nm and reading dual emissions at 615 nm and 665 nm.
Briefly, compounds disclosed herein were solubilized in DMSO and a series of 10, three-fold serial dilutions were made for each compound in 100% DMSO. The initial starting concentration for the serial dilutions of each compound was 10 μM or 100 μM. Control samples lacking compound, KDM5B enzyme or various reaction components also were prepared and processed in parallel with compound test samples.
An aliquot of each serial dilution of test compound was added to a 384 well plate (Corning Cat #3572) containing 1.2 nM KDM5B enzyme suspended in 50 mM Hepes, pH7.5, 50 mM NaCl, 0.01% Tween 20, 0.1% BSA, and 1% DMSO (final concentrations) in a 10 microliter reaction volume using a LABCYTE ECHO liquid handler. The samples were mixed, subjected to centrifugation and the plate was pre-incubated at room temperature for 15 minutes (min), to which 30 nM Biotin-H3K4Me3 1-21 substrate (Anaspec, Freemont Calif., Cat #64192), 20 μM Fe(II) and 20 μM α-ketoglutarate co-factors, and 100 μM Ascorbate were added to initiate the enzymatic reaction. The reaction mixture was incubated at room temperature for 45 minutes. A 10 μl aliquot of a detection mixture of Eu-labeled anti-histone H3K4Me2 antibody (CisBIO, Bedford Mass., Cat #610AXLB) and Streptavidin-XL665 (CisBIO, Bedford Mass., Cat #610 SAXLB) in 200 mM potassium fluoride and 10 mM EDTA was added and kinetic measurements were read at 5 minute intervals for a period of 30 minutes using an Envision Multiplate Reader (PerkinElmer Model 2102; excitation at 320 nm and emission reads at 615 nm and 665 nm). The IC50 value for each compound was determined from the 665/615 ratio obtained for each 10 point dose-response curve using GraphPad Prism 4 software with a sigmodial dose response.

T1 sequence (Q9UGL1 whole entry): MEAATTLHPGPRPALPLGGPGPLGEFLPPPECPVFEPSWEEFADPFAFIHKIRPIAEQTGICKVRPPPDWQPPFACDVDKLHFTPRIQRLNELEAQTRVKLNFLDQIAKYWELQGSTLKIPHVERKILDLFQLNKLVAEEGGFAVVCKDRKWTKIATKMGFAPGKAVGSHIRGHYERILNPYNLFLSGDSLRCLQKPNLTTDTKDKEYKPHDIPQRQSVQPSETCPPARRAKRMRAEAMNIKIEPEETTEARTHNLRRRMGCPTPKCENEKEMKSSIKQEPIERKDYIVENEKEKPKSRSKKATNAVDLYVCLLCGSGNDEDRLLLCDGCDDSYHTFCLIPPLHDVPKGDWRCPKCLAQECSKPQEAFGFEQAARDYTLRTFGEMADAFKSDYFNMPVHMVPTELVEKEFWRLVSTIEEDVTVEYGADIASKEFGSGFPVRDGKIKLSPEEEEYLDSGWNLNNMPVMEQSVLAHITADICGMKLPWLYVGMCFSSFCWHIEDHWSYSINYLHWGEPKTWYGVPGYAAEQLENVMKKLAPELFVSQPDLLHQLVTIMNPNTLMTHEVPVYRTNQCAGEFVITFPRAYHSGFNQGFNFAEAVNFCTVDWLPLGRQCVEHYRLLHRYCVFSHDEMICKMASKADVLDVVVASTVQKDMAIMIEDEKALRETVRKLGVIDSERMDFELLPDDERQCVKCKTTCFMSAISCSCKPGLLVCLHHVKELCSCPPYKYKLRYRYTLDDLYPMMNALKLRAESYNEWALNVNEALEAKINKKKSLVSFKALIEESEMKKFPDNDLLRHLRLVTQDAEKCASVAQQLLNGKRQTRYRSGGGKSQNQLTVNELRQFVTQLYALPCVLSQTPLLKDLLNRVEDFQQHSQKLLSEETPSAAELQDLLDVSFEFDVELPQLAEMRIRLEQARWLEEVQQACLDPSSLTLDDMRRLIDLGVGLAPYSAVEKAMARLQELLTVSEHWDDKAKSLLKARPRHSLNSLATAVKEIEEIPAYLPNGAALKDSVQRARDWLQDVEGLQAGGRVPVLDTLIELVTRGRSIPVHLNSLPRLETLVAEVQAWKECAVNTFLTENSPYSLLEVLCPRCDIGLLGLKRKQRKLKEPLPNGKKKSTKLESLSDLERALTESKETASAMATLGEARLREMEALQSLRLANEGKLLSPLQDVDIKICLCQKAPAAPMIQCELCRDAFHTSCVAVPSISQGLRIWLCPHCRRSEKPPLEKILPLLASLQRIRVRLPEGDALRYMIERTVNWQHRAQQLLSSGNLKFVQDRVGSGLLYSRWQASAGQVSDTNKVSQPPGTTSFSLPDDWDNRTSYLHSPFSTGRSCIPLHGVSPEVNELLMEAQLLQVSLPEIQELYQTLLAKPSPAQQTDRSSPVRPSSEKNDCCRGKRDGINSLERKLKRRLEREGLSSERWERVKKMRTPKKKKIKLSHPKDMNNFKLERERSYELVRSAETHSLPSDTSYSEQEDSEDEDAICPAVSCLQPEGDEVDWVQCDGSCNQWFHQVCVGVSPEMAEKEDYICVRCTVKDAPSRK

IC50	Compound
> 1000 nM	O=C(O)c1c(NCc2cccc(OC(F)F)c2)ccc2nccn12 [Example 19]
> 1000 nM	Cc1ccc(Cl)c(CNc2ccc3nccn3c2C(=O)O)c1F [Example 70]
> 1000 nM	O=C(O)c1c(NCc2ccc(-c3ccccc3)cc2)ccc2nccn12 [Example 7]
> 1000 nM	O=C(O)c1c(NCC2CCCc3cc(Oc4ccccc4)ccc32)ccc2nccn12 (stereo not drawn) [Example 115]
> 1000 nM	COc1ccc(-c2cccc(CNc3ccc4nccn4c3C(=O)O)c2)cc1 [Example 125]
> 1000 nM	Cc1ccc(C(F)(F)F)c(CNc2ccc3nccn3c2C(=O)O)c1 [Example 69]
> 1000 nM	CCN1CCN(c2ccc(CNc3ccc4nccn4c3C(=O)O)c3c2CCCC3)CC1 [Example 124]
> 1000 nM	O=C(O)c1c(NCc2ccc3c(c2)CCO3)ccc2nccn12 [Example 98]
500 to 1000 nM	O=C(O)c1c(NCc2ccc(C(F)(F)F)cc2)ccc2nccn12 [Example 55]
≤ 500 nM	N#Cc1ccc(CNc2ccc3nccn3c2C(=O)O)cc1 [Example 59]
> 1000 nM	CCOc1ccccc1CNc1ccc2nccn2c1C(=O)O [Example 40]
≤ 500 nM	COc1cc(Cl)ccc1CNc1ccc2nccn2c1C(=O)O [Example 8]
> 1000 nM	O=C(O)c1c(NCc2c(F)cccc2Cl)ccc2nccn12 [Example 39]
> 1000 nM	COc1ccccc1CNc1ccc2nccn2c1C(=O)O [Example 17]
500 to 1000 nM	O=C(O)c1c(NCc2ccc3c(c2)OC(F)(F)O3)ccc2nccn12 [Example 77]
> 1000 nM	N#Cc1cccc(CNc2ccc3nccn3c2C(=O)O)c1 [Example 128]
500 to 1000 nM	COc1cc(CNc2ccc3nccn3c2C(=O)O)ccc1F [Example 97]
> 1000 nM	COc1cc(Cl)ccc1CNc1ccc2nccn2c1C#N [Example 110]
> 1000 nM	O=C(O)c1cc(Oc2ccc3ccncc3c2)cc2nccn12 [Example 109]
500 to 1000 nM	COc1cc(CN2CCC(NCCc3ccccc3)CC2)ccc1CNc1ccc2nccn2c1C(=O)O [Example 130]
500 to 1000 nM	COc1ccc(CNc2ccc3nccn3c2C(=O)O)cc1Cl [Example 47]
≤ 500 nM	COc1ccc(CNc2ccc3nccn3c2C(=O)O)c(OC)c1 [Example 1]
≤ 500 nM	O=C(O)c1cc(CCCN2CCC(c3cc(Cl)cc(Cl)c3)CC2)cc2nccn12 [Example 135]
> 1000 nM	O=C(O)c1c(NCc2cc(Cl)cc(Cl)c2)ccc2nccn12 [Example 18]

IC50	Compound
500 to 1000 nM	Cn1c(=O)n(C)c2cc(CNc3ccc4nccn4c3C(=O)O)ccc21 [Example 76]
≤ 500 nM	O=C(O)c1cc(-c2cn(Cc3ccc(Cl)cc3)cn2)cc2nccn12 [Example 113]
> 1000 nM	O=C(O)c1c(NCc2cc(Cl)c(F)cc2F)ccc2nccn12 [Example 99]
> 1000 nM	O=C(O)c1c(NCc2ccc(C(F)(F)F)c(F)c2)ccc2nccn12 [Example 48]
> 1000 nM	O=C(O)c1c(NCc2cc(C(F)(F)F)ccc2F)ccc2nccn12 [Example 43]
> 1000 nM	O=C(O)c1c(NCc2ccc(N3CCCCC3)cc2)ccc2nccn12 [Example 27]
> 1000 nM	O=C(O)c1c(NCc2ccc(N3CCOCC3)cc2)ccc2nccn12 [Example 64]
500 to 1000 nM	O=C(O)c1c(NCc2c(F)cc(F)cc2F)ccc2nccn12 [Example 71]
> 1000 nM	O=C(O)c1c(NCc2ccc(Cl)cc2)ccc2nccn12 [Example 74]
> 1000 nM	CN(C)Cc1ccccc1CNc1ccc2nccn2c1C(=O)O [Example 131]
≤ 500 nM	CN1CCN(c2ccc(CNc3ccc4nccn4c3C(=O)O)cc2)CC1 [Example 21]
> 1000 nM	CN(Cc1ccc(F)cc1)Cc1ccc(Oc2cc(C(=O)O)n3ccnc3c2)cc1 [Example 134]
> 1000 nM	O=C(O)c1cc(OCCN2CCC(c3cc(Cl)cc(Cl)c3)CC2)cc2nccn12 [Example 132]
500 to 1000 nM	O=C(O)c1c(NCc2ccc(C(F)(F)F)cc2F)ccc2nccn12 [Example 41]
500 to 1000 nM	O=C(O)c1c(NCc2ccccc2-c2ccccc2)ccc2nccn12 [Example 44]
> 1000 nM	CN(C)c1ccc(CNc2ccc3nccn3c2C(=O)O)cc1 [Example 96]
> 1000 nM	COc1cc(Cl)ccc1CNc1ccc2nc(C)cn2c1C(=O)O [Example 119]
> 1000 nM	O=C(O)c1c(NCc2cccc(OC(F)(F)F)c2)ccc2nccn12 [Example 89]
> 1000 nM	Cc1ccc(CNc2ccc3nccn3c2C(=O)O)c(F)c1 [Example 42]
500 to 1000 nM	O=C(O)c1c(NCc2cc(Cl)ccc2Cl)ccc2nccn12 [Example 34]
≤ 500 nM	CS(=O)(=O)c1cccc(CNc2ccc3nccn3c2C(=O)O)c1 [Example 88]
≤ 500 nM	O=C(O)c1c(NCc2ccc(F)cc2)ccc2nccn12 [Example 23]
> 1000 nM	Cc1cc(CNc2ccc3nccn3c2C(=O)O)ccc1F [Example 63]
> 1000 nM	Cc1ccc(F)cc1CNc1ccc2nccn2c1C(=O)O [Example 68]
